How the values were obtained:
Assay type in all cases: cell-based, human
[1] = test system: ABCA1 transcription; test: ABCA1 mRNA expression by realtime RT-PCR in LNCaP cells; settings: 10 μM T0901317 24 hours, 5 μM 5-aza-2′-deoxycytidine 7 days, or combination, vs mock treated
Method: PrEC (Lonza, Walkersville, Md.) was cultured in PrEGM according to the manufacturer's instructions. LNCaP and DU 145 (ATCC, Manassas, Va.) were cultured in RPMI 1640 supplemented with 10% FBS. All three cell lines were obtained directly from the cell banks, and the identities of the cell lines were verified per the cell banks' protocols. […] Louis, Mo.) for 24 hours or 5 μM 5-aza-2′-deoxycytidine (Sigma, St. Louis, Mo.) for 7 days, or a combination of the two compounds. ABCA1 promoter (−1132 to +112 relative to the transcription start site) was amplified by PCR and subcloned into the pGL4.20 (Promega, Madison, Wis.). Methylated ABCA1 promoter was in vitro DNA methylated using SssI (NEB, Ipswich, Mass.) and ligated into pGL4.20 prior to transfection. The reporter construct was co-transfected with pGL 4.74 vector into DU 145 cells using Nucleofection (Lonza, Walkersville, Md.). Reporter luciferase activity was measured and normalized to control Renilla luciferase activity for each sample. The mean±SEM from triplicate experiments for each experimental group was plotted for comparisons. […] Expression of ABCA1 and GAPDH mRNA was measured by realtime RT-PCR as previously described (Yan et al.). The relative fold change in expression was calculated using the 2^−ΔΔCT method by normalizing to GAPDH mRNA expression in each sample and compared to LNCaP mock treated cells. […]

[2] = test system: ABCA1 promoter; test: Methylation-specific PCR (MSP) of the ABCA1 promoter in LNCaP cells; settings: 5 μM for 7 days
Method: Bisulfite sequencing and methylation-specific PCR (MSP) of the ABCA1 promoter was performed as previously described (Yan et al., PLoS ONE. 2011; 6(6):e20628 (2011). See Table 1 for a list of the primers used.

[3] = test system: LNCaP cells; test: Total cellular cholesterol content in LNCaP cells; settings: single agent
Method: (§1) PrEC (Lonza, Walkersville, Md.) was cultured in PrEGM according to the manufacturer's instructions. LNCaP and DU 145 (ATCC, Manassas, Va.) were cultured in RPMI 1640 supplemented with 10% FBS. All three cell lines were obtained directly from the cell banks, and the identities of the cell lines were verified per the cell banks' protocols. Cells were treated with 10 μM T0901317 (Sigma, St. Louis, Mo.) for 24 hours or 5 μM 5-aza-2′-deoxycytidine (Sigma, St. Louis, Mo.) for 7 days, or a combination of the two compounds. ABCA1 promoter (−1132 to +112 relative to the transcription start site) was amplified by PCR and subcloned into the pGL4.20 (Promega, Madison, Wis.). Methylated ABCA1 promoter was in vitro DNA methylated using SssI (NEB, Ipswich, Mass.) and ligated into pGL4.20 prior to transfection. […] Reporter luciferase activity was measured and normalized to control Renilla luciferase activity for each sample. […] Biochemical quantification of intracellular cholesterol was performed as previously described. […] At the end of this chase period, the radioactivity in the medium and cells was determined by liquid scintillation counting, and the percent efflux was calculated as 100×(medium dpm)/(medium dpm+cell dpm). Percent efflux to acceptors was calculated as (percent efflux to acceptor)-(percent efflux to no acceptor). […]

[4] = test system: LNCaP cells; test: Cellular [3H]-cholesterol efflux to acceptors in LNCaP cells; settings: for cholesterol efflux to APOA1: acceptor 10 μg/mL APOA1, 4 hours chase; for cholesterol efflux to HDL: acceptor 100 μg/mL HDL, 4 hours chase
Method: PrEC (Lonza, Walkersville, Md.) was cultured in PrEGM according to the manufacturer's instructions. LNCaP and DU 145 (ATCC, Manassas, Va.) were cultured in RPMI 1640 supplemented with 10% FBS. All three cell lines were obtained directly from the cell banks, and the identities of the cell lines were verified per the cell banks' protocols. Cells were treated with 10 μM T0901317 (Sigma, St. Louis, Mo.) for 24 hours or 5 μM 5-aza-2′-deoxycytidine (Sigma, St. Louis, Mo.) for 7 days, or a combination of the two compounds. ABCA1 promoter (−1132 to +112 relative to the transcription start site) was amplified by PCR and subcloned into the pGL4.20 (Promega, Madison, Wis.). Methylated ABCA1 promoter was in vitro DNA methylated using SssI (NEB, Ipswich, Mass.) and ligated into pGL4.20 prior to transfection. The reporter construct was co-transfected with pGL 4.74 vector into DU 145 cells using Nucleofection (Lonza, Walkersville, Md.). Reporter luciferase activity was measured and normalized to control Renilla luciferase activity for each sample. The mean±SEM from triplicate experiments for each experimental group was plotted for comparisons. The different groups were compared using one way ANOVA with Bonferroni's multiple comparison test. For filipin staining, LNCaP and DU 145 cells were grown on glass coverslips, fixed in 3% paraformaldehyde, and stained with 50 μg/mL filipin (Sigma, St. Louis, Mo.). Images were acquired using QCapturePro software (Qlmaging, Surrey, Canada) at the designated magnifications and fixed aperture and exposure time for both cell lines. Biochemical quantification of intracellular cholesterol was performed as previously described. Robinet et al., J Lipid Res. 51(11):3364-9 (2010). The different groups were compared using one way ANOVA with Bonferroni correction. For analysis of cholesterol efflux, cells were labeled with 0.5 μCi/mL [^3H]-cholesterol in RPMI containing 1% FBS for 16 hours at 37° C. After labeling, cells were chased for 4 hours at 37° C. in RPMI with or without acceptors (10 μg/mL APOA1 or 100 μg/mL HDL). At the end of this chase period, the radioactivity in the medium and cells was determined by liquid scintillation counting, and the percent efflux was calculated as 100×(medium dpm)/(medium dpm+cell dpm). Percent efflux to acceptors was calculated as (percent efflux to acceptor)-(percent efflux to no acceptor). LNCaP treatment groups were compared to the mock treated sample using one way ANOVA with Dunnett's correction. Unpaired t test with Welch's correction was used to compare the T0901317-treated with the mock treated DU 145 cells.

[5] = test system: ABCA1 promoter; test: ABCA1 promoter/luciferase reporter assay in DU 145 cells; settings: 10 μM, 24 hours
Method: PrEC (Lonza, Walkersville, Md.) was cultured in PrEGM according to the manufacturer's instructions. LNCaP and DU 145 (ATCC, Manassas, Va.) were cultured in RPMI 1640 supplemented with 10% FBS. All three cell lines were obtained directly from the cell banks, and the identities of the cell lines were verified per the cell banks' protocols. Cells were treated with 10 μM T0901317 (Sigma, St. Louis, Mo.) for 24 hours or 5 μM 5-aza-2′-deoxycytidine (Sigma, St. Louis, Mo.) for 7 days, or a combination of the two compounds. ABCA1 promoter (−1132 to +112 relative to the transcription start site) was amplified by PCR and subcloned into the pGL4.20 (Promega, Madison, Wis.). Methylated ABCA1 promoter was in vitro DNA methylated using SssI (NEB, Ipswich, Mass.) and ligated into pGL4.20 prior to transfection. The reporter construct was co-transfected with pGL 4.74 vector into DU 145 cells using Nucleofection (Lonza, Walkersville, Md.). Reporter luciferase activity was measured and normalized to control Renilla luciferase activity for each sample. The mean±SEM from triplicate experiments for each experimental group was plotted for comparisons. The different groups were compared using one way ANOVA with Bonferroni's multiple comparison test.

[6] = test system: DU 145 cells; test: Total cellular cholesterol content in DU 145 cells; settings: 10 μM T0901317
Method: as §1

[7] = test system: DU 145 cells; test: Cellular [3H]-cholesterol efflux to acceptors in DU 145 cells
Method: as §1

Compound: Nc1ncn([C@H]2C[C@H](O)[C@@H](CO)O2)c(=O)n1 [5-aza-2′-deoxycytidine]
- ABCA1 transcription (mRNA expression) [1]: did not strongly induce ABCA1 transcription
- demethylation of ABCA1 promoter [2]: confirmed demethylation of ABCA1 promoter
- intracellular cholesterol (change vs untreated) [3]: did not decrease significantly
- cholesterol efflux to APOA1 [4]: did not result in robust increases in cholesterol efflux
- cholesterol efflux to HDL [4]: same overall trend

Compound: O=S(=O)(c1ccccc1)N(CC(F)(F)F)c1ccc(C(O)(C(F)(F)F)C(F)(F)F)cc1 [T0901317]
- ABCA1 transcription (mRNA expression) [1]: only modestly induced above baseline
- luciferase reporter activity from methylated ABCA1 promoter ([5]; SssI methylated promoter): not induced
- luciferase reporter expression from unmethylated ABCA1 promoter ([5]; unmethylated promoter): significant induction of reporter expression
- intracellular cholesterol (change vs untreated) [3]: did not decrease significantly
- intracellular cholesterol (change vs mock) [6]: decreased intracellular cholesterol
- cholesterol efflux to APOA1 [4]: did not result in robust increases in cholesterol efflux
- cholesterol efflux to HDL [4]: same overall trend
- cholesterol efflux to APOA1 ([7]; acceptor 10 μg/mL APOA1, 10 μM T0901317): significant increase in cholesterol efflux to APOA1
- cholesterol efflux to HDL ([7]; acceptor 100 μg/mL HDL, 10 μM T0901317): small, but statistically significant increase in cholesterol efflux to HDL
